In patent US10688093B2, “Methods, compositions, and uses of novel Fyn kinase inhibitors” (priority 2015, dated 2020):

What follows are compounds tested against full-length recombinant human FYN A (Homo sapiens (Human), UniProt P06241) (assay: ADP-Glo Kinase Assay of FYN kinase inhibition). Conditions: secondary screen, re-synthesized and expanded compounds.
Assay type: biochemical
Procedure, shortened: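 ADP-Glo read-out of peptide phosphorylation after 90 min RT with 12.5 pmol ATP and 100 pg 12-mer substrate. Enzyme was N-GST full-length human FYN A from insect cells, 3 pg, pre-incubated 30 min with compound, 10 points from 10 μM top, 3-fold steps; IC50 from curve.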

full-length recombinant human FYN A, sequence (P06241 whole entry): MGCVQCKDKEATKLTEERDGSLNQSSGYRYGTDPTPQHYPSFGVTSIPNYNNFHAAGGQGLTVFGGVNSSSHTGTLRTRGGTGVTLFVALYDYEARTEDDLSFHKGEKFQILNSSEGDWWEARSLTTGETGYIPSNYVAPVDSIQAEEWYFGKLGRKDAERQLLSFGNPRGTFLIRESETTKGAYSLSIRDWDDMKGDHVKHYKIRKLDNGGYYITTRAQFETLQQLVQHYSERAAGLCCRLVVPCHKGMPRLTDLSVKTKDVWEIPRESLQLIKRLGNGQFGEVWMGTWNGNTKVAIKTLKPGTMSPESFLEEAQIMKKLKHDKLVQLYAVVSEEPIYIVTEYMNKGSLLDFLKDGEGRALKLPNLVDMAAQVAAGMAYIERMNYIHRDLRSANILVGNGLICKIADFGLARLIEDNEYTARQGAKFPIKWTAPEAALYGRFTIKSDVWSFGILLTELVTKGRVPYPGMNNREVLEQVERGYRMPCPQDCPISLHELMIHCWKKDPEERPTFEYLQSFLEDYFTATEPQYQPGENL

`COc1cc(-c2cc(-c3ccc(C(N)=O)cc3)cnc2N)ccc1O` [BF000313038, 4-[6-amino-5-(4-hydroxy-3-methoxy-phenyl)-3-pyridyl]-benzamide] and `COc1cc(-c2cc(-c3ccc(S(C)(=O)=O)cc3)cnc2N)ccc1O` [BF000313040, 4-[2-amino-5-(4-methyl-sulfolyl-phenyl)-3-pyridyl]-2-methoxy-phenol] are within 1.5-fold of each other in IC50: 214 nM for the first, 316 nM for the second.

First: COc1cc(-c2cnc(N)c(-c3ccc(O)cc3)c2)cc(OC)c1OC [BF000313556, 4-[2-amino-5-(3,4,5-trimethoxy-phenyl)-3-pyridyl]-phenol]
Second: CC(=O)Nc1cccc(-c2cnc(N)c(-c3ccc(O)cc3)c2)c1 [BF000313562, N-[3-[6-amino-5-(4-hydroxy-phenyl)-3-pyridyl]-phenyl]-acetamide]
The IC50 of the first is 3.1-fold lower: 288 nM for the first, 898 nM for the second.

`NC(=O)c1ccc(-c2cnc(N)c(-c3ccc(O)cc3)c2)cc1` [BF000313559, 4-[6-amino-5-(4-hydroxy-phenyl)-3-pyridyl]-benzamide] and `CS(=O)(=O)c1ccc(-c2cnc(N)c(-c3ccc(O)cc3)c2)cc1` [BF000313563, 4-[2-amino-5-(4-methyl-sulfonyl-phenyl)-3-pyridyl)-phenol] are within 1.5-fold of each other in IC50: 1090 nM for the first, 1550 nM for the second.

Compared with `CN(C)C(=O)c1cccc(-c2cn3c(-c4ccc(O)cc4)cnc3cn2)c1` [BF000333343, 3-[3-(4-hydroxy-phenyl)-imidazo[1,2-a]pyrazin-6-yl]-N,N-dimethyl-benzamide], `CN(C)CCNC(=O)c1ccc(-c2cn3c(-c4ccc(O)cc4)cnc3cn2)cc1` [BF000333881, N-[2-(dimethyl-amino)-ethyl]-4-[3-(4-hydroxy-phenyl)-imidazo[1,2-a]pyrazin-6-yl]-benzamide] is 1.8-fold lower in IC50: 871 nM for the first, 486 nM for the second.

Compared with `COc1cc(-c2cnc3cnc(-c4cnn(C)c4)cn23)ccc1O` [BF000333452, 2-methoxy-4-[6-(1-methyl-pyrazol-4-yl)-imidazo[1,2-a]pyrazin-3-yl]phenol], `COc1cc(-c2cnc3cnc(-c4cccc(C(=O)NCCO)c4)cn23)ccc1O` [BF000334020, N-(2-hydroxy-ethyl)-3-[3-(4-hydroxy-3-methoxy-phenyl)-imidazo[1,2-a]pyrazin-6-yl]benzamide] is 2.1-fold higher in IC50: 624 nM for the first, 1280 nM for the second.

`CN(C)CCCNC(=O)c1ccc(-c2cn3c(-c4ccc(O)cc4)cnc3cn2)cc1` [BF000333874, N-[3-(dimethyl-amino)-propyl]-4-[3-(4-hydroxy-phenyl)-imidazo[1,2-a]pyrazin-6-yl]-benzamide] and `O=C(NCCO)c1ccc(-c2cn3c(-c4ccc(O)cc4)cnc3cn2)cc1` [BF000333882, N-(2-hydroxy-ethyl)-4-[3-(4-hydroxy-phenyl)-imidazo[1,2-a]pyrazin-6-yl]benzamide] are within 1.5-fold of each other in IC50: 705 nM for the first, 740 nM for the second.

`CN1CCN(c2ccc(-c3cn4c(-c5ccc(O)cc5)cnc4cn3)cc2)CC1` [BF000333878, 4-[6-[4-(4-methyl-piperazin-1-yl)phenyl]-imidazo[1,2-a]pyrazin-3-yl]phenol] and `O=C(NCCO)c1ccc(-c2cn3c(-c4ccc(Oc5ccccc5)cc4)cnc3cn2)cc1` [BF000334032, N-(2-hydroxy-ethyl)-4-[3-(4-phenoxy-phenyl)-imidazo-[1,2-a]-pyrazin-6-yl]benzamide] are within 1.5-fold of each other in IC50: 465 nM for the first, 464 nM for the second.

Compared with `COc1cc(-c2cnc3cnc(-c4ccc(C(=O)NCCCN(C)C)cc4)cn23)ccc1O` [BF000334019, N-[3-(dimethyl-amino)-propyl]-4-[3-(4-hydroxy-3-methoxy-phenyl)-imidazo[1,2-a]pyrazin-6-yl]benzamide], `COc1cc(-c2cnc3cnc(-c4ccc(C(=O)NCCN(C)C)cc4)cn23)ccc1O` [BF000334023, N-[2-(dimethyl-amino)ethyl]-4-[3-(4-hydroxy-3-methoxy-phenyl)-imidazo[1,2-a]pyrazin-6-yl]benzamide] is 1.9-fold lower in IC50: 647 nM for the first, 337 nM for the second.

In the case of `CN(C)CCNC(=O)c1ccc(-c2cn3c(-c4ccc(Oc5ccccc5)cc4)cnc3cn2)cc1` [BF000334031, N-[2-(dimethyl-amino)ethyl]-4-[3-(4-phenoxy-phenyl)-imidazo[1,2-a]pyrazin-6-yl]-benzamide], the IC50 is reported as 222 nM.
